Assay results as given in patent US8247541B2, “Plant compositions enriched in dehydrosoyasaponin I (D-I) and methods of producing such compositions” (Her Majesty the Queen in right of Canada, as represented by …, priority 2007, dated 2012).
“Also recorded” adds a separate entry of the source. Marks after values point to notes of the source that are not given here.

Key:
[1] = Light treatment of soyasaponin extracts/solutions followed by HPLC/ELSD (peak area ratio to internal standard alpha-hederin); format: physicochemical; details: 80% methanol; for D-I/D-I + S-I + S-VI / HPLC/ELSD component peak area to internal standard ratio, D-I / HPLC/ELSD component peak area to internal standard ratio, S-I / HPLC/ELSD component peak area to internal standard ratio, S-VI / HPLC/ELSD component peak area to internal standard ratio, total soyasaponins / HPLC/ELSD component peak area to internal standard ratio, unretained: 2 days fluorescent light
Protocol: HPLC and mass spectrometry. HP-20 MeOH samples (N=3) were prepared in 80% methanol at 8 mg/mL ( ? -hederin at 0.25 mg/mL) and syringe filtered (0.45 μm pore size, nylon membrane type, Chromatographic Specialties, Brockville, ON) into 0.25 mL glass autosampler vial inserts (Fisher no. 03-375-3A). The solutions were maintained at 15° C. before injection ([…] volume). The instrument consisted of an Alliance 2690 separations module (Waters Canada, Mississauga, ON) equipped with vacuum solvent degassing, a Waters 996 photodiode array detector (PDA) and a PL-EMD-960 evaporative light scattering detector (ELSD) (Polymer Laboratories, Amherst, Mass.) controlled by Waters Millennium software. Settings for the ELSD were attenuation=1, time constant=1 second, temperature=90°, PMT level=6 and airflow=4 liters/min. A reversed phase C-18 Symmetry™ column (3.0×150 mm, 5 μm particle size) purchased from Waters Canada and maintained at 30° C. was used. The mobile phase consisted of 0.05% trifluoroacetic acid (TFA) in water (solvent A) and 0.05% TFA in acetonitrile (solvent B), delivered at a flow rate of 0.4 mL/min. The gradient elution program consisted of 95% A and 5% B at time 0. After 10 min, the composition was 65% A and 35% B (linear, curve 6 gradient). At that time, the linear gradient progressed to 50% A and 50% B over 15 min and to 5% A-95% B over 5 min before reverting to 95% A and 5% B from 35 to 43 min. Mean values of the peak area ratios from single analysis of the three samples from each variety were reported. […]
To further investigate the possibility of S-VI undergoing visible-light-mediated phototransformation to D-I, a source of the unstable S-VI was required as well as other chromatographic fractions that might contain a photosensitizer. Starting with defatted Amit chickpea flour and with brief (minimal) exposure to visible laboratory light, we therefore isolated by the traditional hot methanol and Diaion HP-20 procedures (of Table 1) a dried HP-20 MeOH extract containing S-VI. The earlier-eluting aqueous methanol fractions (also isolated in powder form) were additionally obtained as a potential source of the photosensitizer, in addition to the chloroform extract from the defatting step. Three extraction and isolation experiments were completed (prep A, B and E). Aqueous methanol fractions (30% MeOH and <30% MeOH) containing non-saponin components (see example 7) were additionally available from an experiment on the same flour but these fractions had been isolated after exposure of the crude methanol extract to light (see Table 7).
Three concentrations of a 30% MeOH isolate were used for comparison (two concentrations were previously employed in Table 10). […] D-I to internal standard ratios were 3.3-4, equivalent to the ratios obtained in tests 3 and 4 with the aqueous methanol additions (see also trial 3 of Table 10).

[2] = Solubility of photosensitizer in extraction solvents; format: physicochemical
[3] = target: calcium-dependent potassium channels (Homo sapiens, UniProt Q12791+Q16558); details: cited from earlier work
Chain of calcium-dependent potassium channels (Q12791 whole entry): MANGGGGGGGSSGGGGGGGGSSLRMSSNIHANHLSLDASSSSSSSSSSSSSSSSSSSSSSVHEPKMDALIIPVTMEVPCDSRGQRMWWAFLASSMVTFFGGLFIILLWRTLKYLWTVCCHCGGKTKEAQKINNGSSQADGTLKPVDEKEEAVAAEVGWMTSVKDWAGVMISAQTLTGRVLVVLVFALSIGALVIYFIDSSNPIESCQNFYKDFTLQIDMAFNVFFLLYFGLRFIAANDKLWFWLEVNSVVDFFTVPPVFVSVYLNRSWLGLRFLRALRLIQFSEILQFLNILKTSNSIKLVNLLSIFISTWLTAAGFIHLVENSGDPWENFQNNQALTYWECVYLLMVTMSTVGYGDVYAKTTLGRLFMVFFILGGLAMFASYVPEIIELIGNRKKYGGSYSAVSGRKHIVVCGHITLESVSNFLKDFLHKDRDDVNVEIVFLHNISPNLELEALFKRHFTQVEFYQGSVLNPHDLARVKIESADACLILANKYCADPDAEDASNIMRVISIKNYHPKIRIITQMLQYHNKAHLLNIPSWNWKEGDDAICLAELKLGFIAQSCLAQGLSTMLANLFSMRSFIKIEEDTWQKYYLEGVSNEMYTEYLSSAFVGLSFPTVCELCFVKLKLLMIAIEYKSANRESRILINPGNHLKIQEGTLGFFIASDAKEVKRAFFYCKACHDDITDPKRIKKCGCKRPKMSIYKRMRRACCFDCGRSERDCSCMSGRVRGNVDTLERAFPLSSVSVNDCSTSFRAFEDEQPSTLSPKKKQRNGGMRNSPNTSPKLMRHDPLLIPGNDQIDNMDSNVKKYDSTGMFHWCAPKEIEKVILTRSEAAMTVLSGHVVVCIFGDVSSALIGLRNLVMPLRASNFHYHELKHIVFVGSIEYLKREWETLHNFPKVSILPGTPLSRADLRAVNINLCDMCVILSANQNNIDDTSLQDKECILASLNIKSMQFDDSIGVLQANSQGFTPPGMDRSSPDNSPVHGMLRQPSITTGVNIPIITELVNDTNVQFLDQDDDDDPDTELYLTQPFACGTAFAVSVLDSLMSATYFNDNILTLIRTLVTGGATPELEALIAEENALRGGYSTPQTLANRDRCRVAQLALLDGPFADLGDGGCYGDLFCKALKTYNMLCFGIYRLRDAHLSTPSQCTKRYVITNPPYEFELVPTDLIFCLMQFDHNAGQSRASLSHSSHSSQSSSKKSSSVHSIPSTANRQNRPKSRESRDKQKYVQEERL
Chain of calcium-dependent potassium channels (Q16558 whole entry): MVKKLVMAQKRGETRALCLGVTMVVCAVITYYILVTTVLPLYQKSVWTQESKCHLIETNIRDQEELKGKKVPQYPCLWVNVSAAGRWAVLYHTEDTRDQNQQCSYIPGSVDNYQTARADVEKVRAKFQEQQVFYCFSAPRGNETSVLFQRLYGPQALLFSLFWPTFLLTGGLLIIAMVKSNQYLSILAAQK

[4] = test system: stored product insect pests; details: D-I isolated from pea; cited from earlier work
[5] = potential photosensitizer 10 μM added to 100% MeOH fraction (3 mg) of Amit chickpea
[6] = potential photosensitizer 50 μM added to 100% MeOH fraction (3 mg) of Amit chickpea
[7] = potential photosensitizer 100 μM added to 100% MeOH fraction (3 mg) of Amit chickpea
[8] = potential photosensitizer 50 μM added to 100% MeOH (2.98 mg) + 30% MeOH (4.47-4.58 mg) fractions

| Molecule | D-I/D-I + S-I + S-VI [1, 5] | HPLC/ELSD component peak area to internal standard ratio, D-I [1, 5] | HPLC/ELSD component peak area to internal standard ratio, S-I [1, 5] | HPLC/ELSD component peak area to internal standard ratio, S-VI [1, 5] | HPLC/ELSD component peak area to internal standard ratio, total soyasaponins [1, 5] | HPLC/ELSD component peak area to internal standard ratio, unretained [1, 5] | D-I/D-I + S-I + S-VI [1, 6] | HPLC/ELSD component peak area to internal standard ratio, D-I [1, 6] | HPLC/ELSD component peak area to internal standard ratio, S-I [1, 6] | HPLC/ELSD component peak area to internal standard ratio, S-VI [1, 6] | HPLC/ELSD component peak area to internal standard ratio, total soyasaponins [1, 6] | HPLC/ELSD component peak area to internal standard ratio, unretained [1, 6] | D-I/D-I + S-I + S-VI [1, 7] | HPLC/ELSD component peak area to internal standard ratio, D-I [1, 7] | HPLC/ELSD component peak area to internal standard ratio, S-I [1, 7] | HPLC/ELSD component peak area to internal standard ratio, S-VI [1, 7] | HPLC/ELSD component peak area to internal standard ratio, total soyasaponins [1, 7] | HPLC/ELSD component peak area to internal standard ratio, unretained [1, 7] | other results |
| --- | --- | --- | --- | --- | --- | --- | --- | --- | --- | --- | --- | --- | --- | --- | --- | --- | --- | --- | --- |
| Cc1cc2nc3c(=O)[nH]c(=O)nc-3n(C[C@H](O)[C@H](O)[C@H](O)COP(=O)(O)OP(=O)(O)OC[C@H]3O[C@@H](n4cnc5c(N)ncnc54)[C@H](O)[C@@H]3O)c2cc1C [FAD] | 0.3 | 3.3 | 6.8 | <0.003 | 10.1 | 5.1 | 0.4 | 3.0 | 5.5 | <0.003 | 8.6 | 5.6 | 0.4 | 2.8 | 4.0 | <0.003 | 6.7 | 6.9 |  |
| Cc1cc2nc3c(=O)[nH]c(=O)nc-3n(C[C@H](O)[C@H](O)[C@H](O)COP(=O)(O)O)c2cc1C [FMN] | 0.3 | 3.3 | 6.5 | <0.003 | 9.9 | 4.8 | 0.4 | 2.9 | 4.5 | <0.003 | 7.4 | 5.1 | 0.5 | 1.8 | 0.3^f | <0.003 | 2.1 | 6.5 |  |
| CC1=C(O)C(=O)C[C@H](O[C@@H]2CC(C)(C)C[C@H]3C4=CC[C@@H]5[C@@]6(C)CC[C@H](O[C@@H]7O[C@H](C(=O)O)[C@@H](O)[C@H](O)[C@H]7O[C@@H]7O[C@H](CO)[C@H](O)[C@H](O)[C@H]7O[C@@H]7O[C@@H](C)[C@H](O)[C@@H](O)[C@H]7O)[C@](C)(CO)[C@@H]6CC[C@@]5(C)[C@]4(C)CC[C@@]23C)O1 [S-VI, soyasaponin VI] |  |  |  |  |  |  |  |  |  |  |  |  |  |  |  |  |  |  | stability to fluorescent light ([1]; laboratory fluorescent light levels, room temperature, a few days): labile |
| COc1c2ccoc2cc2oc(=O)ccc12 [bergapten] | 0.1 | 1.6 | 8.2 | 1.2 | 11.0 | 4.8 | 0.1 | 1.2 | 6.0 | 1.2 | 8.4 | 3.8 | 0.2 | 1.7 | 8.0 | 1.4 | 11.1 | 4.4 | D-I/D-I + S-I + S-VI [1, 8]: 0.3; HPLC/ELSD component peak area to internal standard ratio, D-I [1, 8]: 3.6; HPLC/ELSD component peak area to internal standard ratio, S-I [1, 8]: 7.4; HPLC/ELSD component peak area to internal standard ratio, S-VI [1, 8]: <0.003; HPLC/ELSD component peak area to internal standard ratio, total soyasaponins [1, 8]: 11.0; HPLC/ELSD component peak area to internal standard ratio, unretained [1, 8]: 70.7 |
| Cc1cc2nc3c(=O)[nH]c(=O)nc-3n(C[C@H](O)[C@H](O)[C@H](O)CO)c2cc1C [riboflavin] |  |  |  |  |  |  |  |  |  |  |  |  |  |  |  |  |  |  | solubility in 80% methanol ([2]; 80% methanol): soluble; solubility in chloroform ([2]; chloroform): sparingly soluble |
| dehydrosoyasaponin I [D-I] |  |  |  |  |  |  |  |  |  |  |  |  |  |  |  |  |  |  | activity on calcium-dependent (calcium-activated) potassium channels ([3]; D-I isolated from leaves of Desmodium adscendens): high-affinity activator; also recorded: potent calcium-activated potassium channel opener; potency as a potassium channel opener relative to S-I ([3]; compared with S-I): 60 fold; insecticidal and antifeedant properties [4]: insecticidal and antifeedant properties |
